Entries after “also recorded” stand apart in the source; their conditions may differ. Where two headings read alike, the source gives them in different places.
Columns and labels:
[1] = tested on: TLR agonist (lipopolysaccharide and R848) and IL-1β-induced proinflammatory cytokine production; experiment: In vitro cytokine release assays in PBMCs; format: cell-based; conditions: LPS
[2] = tested on: MSU-crystal induced (TLR 2/4-dependent) inflammation; experiment: Mouse air pouch model of MSU-crystal induced inflammation; format: in vivo
Excerpt: Overall, efficacy was associated with achieving at least 80% or more IRAK4 knockdown in associated tissues in the model systems.

[3] = In vivo PK studies in rats, dogs and monkeys
Excerpt: (§1) In in vivo pharmacokinetic (PK) studies conducted in rats, dogs, and monkeys.

Solubility = format: physicochemical
Excerpt: (§2) Compound A can be classified tentatively as a BCS II compound.

Permeability = format: in vitro ADME
Excerpt: as §1, §2

P-glycoprotein (P-gp) = P-glycoprotein (P-gp) (Homo sapiens, UniProt P08183); experiment: P-gp substrate assessment in vitro; format: in vitro ADME
Sequence of P-glycoprotein (P-gp) (P08183 whole entry): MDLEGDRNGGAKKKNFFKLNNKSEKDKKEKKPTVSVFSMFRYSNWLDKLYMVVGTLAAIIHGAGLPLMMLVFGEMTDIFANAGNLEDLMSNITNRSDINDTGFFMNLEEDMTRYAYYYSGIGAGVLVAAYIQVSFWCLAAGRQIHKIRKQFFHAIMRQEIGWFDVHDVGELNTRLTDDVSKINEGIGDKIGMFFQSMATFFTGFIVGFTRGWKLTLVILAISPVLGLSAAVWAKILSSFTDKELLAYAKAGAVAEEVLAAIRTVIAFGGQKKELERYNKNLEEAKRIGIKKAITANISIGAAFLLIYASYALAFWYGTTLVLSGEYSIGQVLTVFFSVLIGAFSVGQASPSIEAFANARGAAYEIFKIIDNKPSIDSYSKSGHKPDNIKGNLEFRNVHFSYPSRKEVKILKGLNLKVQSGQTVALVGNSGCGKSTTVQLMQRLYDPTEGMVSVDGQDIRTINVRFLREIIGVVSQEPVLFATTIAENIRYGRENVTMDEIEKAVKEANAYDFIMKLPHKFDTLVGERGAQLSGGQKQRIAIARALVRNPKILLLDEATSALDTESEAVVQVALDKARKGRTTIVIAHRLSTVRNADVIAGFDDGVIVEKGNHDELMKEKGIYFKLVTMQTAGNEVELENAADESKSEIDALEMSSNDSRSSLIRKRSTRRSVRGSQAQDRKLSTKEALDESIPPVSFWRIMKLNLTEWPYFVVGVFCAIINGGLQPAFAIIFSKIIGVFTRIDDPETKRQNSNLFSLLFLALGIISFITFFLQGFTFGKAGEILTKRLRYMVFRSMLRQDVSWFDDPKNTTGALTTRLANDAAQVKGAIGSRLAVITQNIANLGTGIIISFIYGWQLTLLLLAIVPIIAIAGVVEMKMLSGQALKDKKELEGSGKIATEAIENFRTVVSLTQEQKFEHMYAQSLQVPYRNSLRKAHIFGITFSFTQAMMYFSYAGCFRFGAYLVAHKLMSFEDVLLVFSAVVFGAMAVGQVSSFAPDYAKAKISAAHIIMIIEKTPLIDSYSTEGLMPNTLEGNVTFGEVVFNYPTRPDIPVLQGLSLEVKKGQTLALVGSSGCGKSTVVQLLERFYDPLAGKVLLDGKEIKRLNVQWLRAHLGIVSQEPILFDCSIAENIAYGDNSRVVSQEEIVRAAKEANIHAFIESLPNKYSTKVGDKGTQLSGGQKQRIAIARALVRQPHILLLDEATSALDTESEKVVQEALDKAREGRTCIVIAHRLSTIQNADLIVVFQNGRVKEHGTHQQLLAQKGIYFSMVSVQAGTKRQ
Excerpt: as §1
(§3) Metabolites generated in liver microsomes from humans were also detected in those from rat, dog, and monkey. In the in vitro drug-drug interaction studies.

[4] = Plasma protein binding and red blood cell partitioning; format: in vitro ADME, nonclinical species and humans
CYP2C19 = CYP2C19 (Homo sapiens, UniProt P33261); experiment: In vitro drug-drug interaction study, CYP2C19; format: in vitro ADME
Sequence of CYP2C19 (P33261 whole entry): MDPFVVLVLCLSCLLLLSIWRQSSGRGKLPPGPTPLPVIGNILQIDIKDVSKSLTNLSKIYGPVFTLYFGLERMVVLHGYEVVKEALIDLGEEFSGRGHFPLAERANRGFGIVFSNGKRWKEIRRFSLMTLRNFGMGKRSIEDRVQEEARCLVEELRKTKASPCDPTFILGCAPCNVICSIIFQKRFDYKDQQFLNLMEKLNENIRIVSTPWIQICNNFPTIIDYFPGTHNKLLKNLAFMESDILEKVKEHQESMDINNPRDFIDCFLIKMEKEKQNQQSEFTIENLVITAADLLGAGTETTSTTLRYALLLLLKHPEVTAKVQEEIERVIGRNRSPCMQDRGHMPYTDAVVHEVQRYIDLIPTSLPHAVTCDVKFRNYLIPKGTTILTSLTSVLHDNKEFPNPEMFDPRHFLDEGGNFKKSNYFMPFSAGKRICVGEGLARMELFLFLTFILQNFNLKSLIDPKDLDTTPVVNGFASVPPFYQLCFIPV
Excerpt: as §3

clinical = conditions: human, in vivo
Excerpt: The safety margin decreases as the dose increases.

[5] = Phase 1 MAD plasma PK in healthy volunteers; format: in vivo, human; conditions: for Ctrough / AUC: Day 14, geometric mean (% CV); for AUC: read-out: AUC24; for Tmax: Day 14, median (range); for Cmax: Day 14 steady state, geometric mean (% CV)
Method: The selection of Compound A doses will be guided by the safety, tolerability, and PK data in humans from the SAD portion of the study. […] Increasing dose levels in subsequent MAD cohorts will be identified based on the safety and PK observed in the previous SAD and MAD cohorts. Dose escalation between each MAD cohort will not exceed 100%.
However, the dosing interval and the duration of dosing may change following review of the safety, PK, and PD data from Part A.
A MAD5 cohort was added including five twice-weekly doses of 200 mg.
Geometric Mean (% CV) reported for all parameters, except tmax where median (range) are presented. Accumulation Ratio represents fold change in exposure from Day 1 to Day 14.

Phase 1 MAD safety = format: in vivo, human; conditions: multiple daily doses over 14 days up to 200 mg (MAD 4)
Excerpt: Steady-state plasma levels were reached by Day 7, with approximately 3-fold increase in exposure on Day 14 compared to Day 1.

[6] = Phase 1 Part C plasma PK in HS/AD patients; format: in vivo; conditions: human
Excerpt: Part C: Part C is an open-label, multiple dose study in a single cohort of up to 20 patients with AD or HS (at least 10 patients with AD) and will commence after the completion of Part B. Part C will be conducted on both an inpatient and outpatient basis and patients will continue to be followed for safety through Day 28. The dose regimen and the requirement for patient confinement to the clinical units will be selected by the SRC from review of the safety. PK, and PD data after completion of Part B.

[7] = Phase 1 Part C Compound A skin concentration; format: in vivo, human; conditions: FIG. 20, Day 28
[8] = tested on: proinflammatory gene transcripts; experiment: Phase 1 Part C proinflammatory gene transcripts in skin lesions (RNAseq); format: in vivo, human; conditions: Day 28 compared to baseline
Phase 1 Part C safety = format: in vivo, human
[9] = 30 to 100 mg/kg twice daily, 3 days

**Q.** With Cn1c(=O)n([C@@H]2CCC(=O)NC2=O)c2cccc(C#CCOC3CCN(C[C@H]4CC[C@H](n5cc(NC(=O)c6cnn7ccc(N8C[C@H]9C[C@@H]8CO9)nc67)c(C(F)F)n5)CC4)CC3)c21 [Compound A, 5-((1R,4R)-2-oxa-5-azabicyclo[2.2.1]heptan-5-yl)-N-(3-(difluoromethyl)-1-((1r,4R)-4-((4-((3-(1-(2,6-dioxopiperidin-3-yl)-3-methyl-2-oxo-2,3-dihydro-1H-benzo[d]imidazol-4-yl)prop-2-yn-1-yl)oxy)piperidin-1-yl)methyl)cyclohexyl)-1H-pyrazol-4-yl)pyrazolo[1,5-a]pyrimidine-3-carboxamide] as the molecule, how does the “IC50 values, inhibition of proinflammatory cytokine production (IL-6, TNF-α, GM-CSF, IL-8)” value [1] read?
**A.** low nM range

**Q.** And the “IRAK4 levels in the spleen” value [2, 9]?
**A.** significantly reduced

**Q.** What about the “inflammatory exudate, including neutrophils and IL-1β” value [2, 9] of the same molecule?
**A.** significantly reduced

**Q.** What about the “IRAK4 knockdown in associated tissues associated with efficacy” value ([2]; murine inflammation model systems overall) of the same molecule?
**A.** at least 80%

**Q.** And the bioavailability [3]?
**A.** low to moderate

**Q.** And the clearance [3]?
**A.** moderate to high

**Q.** What about the terminal half-life [3] of the same molecule?
**A.** moderate

**Q.** What about the “volume of distribution at steady state” value [3] of the same molecule?
**A.** high

**Q.** And the solubility (Solubility)?
**A.** low

**Q.** What about the solubility (Solubility; FaSSIF, pH 6.5, fassif, read-out: solubility in bio-relevant fluid (FaSSIF)) of the same molecule?
**A.** < 12000 µg/mL

**Q.** And the solubility (Solubility; aqueous media, aqueous buffer, across the physiological pH range, read-out: aqueous solubility)?
**A.** ≤ 3000 µg/mL

**Q.** What about the BCS classification (Solubility; tentative) of the same molecule?
**A.** BCS II

**Q.** And the permeability (Permeability)?
**A.** medium; also recorded: moderate

**Q.** And the “substrate of P-glycoprotein (P-gp)” value (P-glycoprotein (P-gp))?
**A.** substrate

**Q.** What about the “partitioning into red blood cells” value [4] of the same molecule?
**A.** did not significantly partition into red blood cells

**Q.** And the plasma protein binding ([4]; across nonclinical species and humans)?
**A.** highly bound

**Q.** What about the “time dependent inhibition (TDI) of CYP2C19” value (CYP2C19) of the same molecule?
**A.** potential time dependent inhibition (TDI)

**Q.** And the half-life (clinical)?
**A.** 25 to 40 h

**Q.** What about the “inter-subject variability in exposure” value (clinical) of the same molecule?
**A.** low to moderate

**Q.** What about the AUC (clinical; po, 25 mg) of the same molecule?
**A.** 112 ng·h/mL

**Q.** And the Cmax (clinical; po, 25 mg)?
**A.** 3.49 ng/mL

**Q.** What about the Tmax (clinical; po, 25 mg) of the same molecule?
**A.** 8 h

**Q.** And the half-life (clinical; po, 25 mg)?
**A.** 25.2 h

**Q.** And the AUC (clinical; po, 75 mg)?
**A.** 288 ng·h/mL

**Q.** What about the Cmax (clinical; po, 75 mg) of the same molecule?
**A.** 9.08 ng/mL

**Q.** What about the Tmax (clinical; po, 75 mg) of the same molecule?
**A.** 7 h

**Q.** What about the half-life (clinical; po, 75 mg) of the same molecule?
**A.** 28.7 h

**Q.** What about the AUC (clinical; po, 150 mg) of the same molecule?
**A.** 483 ng·h/mL

**Q.** And the Cmax (clinical; po, 150 mg)?
**A.** 12.7 ng/mL

**Q.** And the Tmax (clinical; po, 150 mg)?
**A.** 9 h

**Q.** And the half-life (clinical; po, 150 mg)?
**A.** 31.6 h

**Q.** And the AUC (clinical; po, 300 mg)?
**A.** 848 ng·h/mL

**Q.** What about the Cmax (clinical; po, 300 mg) of the same molecule?
**A.** 17.4 ng/mL

**Q.** And the Tmax (clinical; po, 300 mg)?
**A.** 8 h

**Q.** What about the half-life (clinical; po, 300 mg) of the same molecule?
**A.** 26.6 h

**Q.** What about the AUC (clinical; po, 600 mg) of the same molecule?
**A.** 1520 ng·h/mL

**Q.** And the Cmax (clinical; po, 600 mg)?
**A.** 24.2 ng/mL

**Q.** And the Tmax (clinical; po, 600 mg)?
**A.** 12 h

**Q.** What about the half-life (clinical; po, 600 mg) of the same molecule?
**A.** 30.1 h

**Q.** What about the AUC (clinical; po, 1000 mg) of the same molecule?
**A.** 1950 ng·h/mL

**Q.** What about the Cmax (clinical; po, 1000 mg) of the same molecule?
**A.** 27.8 ng/mL

**Q.** And the Tmax (clinical; po, 1000 mg)?
**A.** 20 h

**Q.** And the half-life (clinical; po, 1000 mg)?
**A.** 40.2 h

**Q.** And the AUC (clinical; po, 1600 mg)?
**A.** 1920 ng·h/mL

**Q.** What about the Cmax (clinical; po, 1600 mg) of the same molecule?
**A.** 27.3 ng/mL

**Q.** What about the Tmax (clinical; po, 1600 mg) of the same molecule?
**A.** 24 h

**Q.** What about the half-life (clinical; po, 1600 mg) of the same molecule?
**A.** 36.4 h

**Q.** And the Ctrough ([5]; 25 mg QD)?
**A.** 5.03 (30.3) ng/mL

**Q.** What about the Ctrough ([5]; 50 mg QD) of the same molecule?
**A.** 7.28 (35.1) ng/mL

**Q.** What about the Ctrough ([5]; 100 mg QD) of the same molecule?
**A.** 9.81 (30.1) ng/mL

**Q.** And the Ctrough ([5]; 200 mg QD)?
**A.** 18.8 (32.6) ng/mL

**Q.** What about the “day of dosing by which steady-state plasma levels reached” value ([5]; MAD, once daily) of the same molecule?
**A.** ≤ 7 days

**Q.** What about the AUC ([5]; human, plasma, oral, 25 mg QD) of the same molecule?
**A.** 153 ng·h/mL

**Q.** What about the Tmax ([5]; human, plasma, oral, 25 mg QD) of the same molecule?
**A.** 8 h

**Q.** And the Cmax ([5]; human, plasma, oral, 25 mg QD)?
**A.** 8.2 ng/mL

**Q.** What about the AUC ([5]; human, plasma, oral, 50 mg QD) of the same molecule?
**A.** 224 ng·h/mL

**Q.** What about the Tmax ([5]; human, plasma, oral, 50 mg QD) of the same molecule?
**A.** 8 h

**Q.** What about the Cmax ([5]; human, plasma, oral, 50 mg QD) of the same molecule?
**A.** 12 ng/mL

**Q.** What about the AUC ([5]; human, plasma, oral, 100 mg QD) of the same molecule?
**A.** 314 ng·h/mL

**Q.** And the Tmax ([5]; human, plasma, oral, 100 mg QD)?
**A.** 8 h

**Q.** What about the Cmax ([5]; human, plasma, oral, 100 mg QD) of the same molecule?
**A.** 16.1 ng/mL

**Q.** What about the AUC ([5]; human, plasma, oral, 200 mg QD) of the same molecule?
**A.** 498 ng·h/mL

**Q.** And the Tmax ([5]; human, plasma, oral, 200 mg QD)?
**A.** 8 h

**Q.** And the Cmax ([5]; human, plasma, oral, 200 mg QD)?
**A.** 25.2 ng/mL

**Q.** What about the half-life ([5]; human, plasma, oral, healthy volunteers, read-out: half-life, range observed in MAD) of the same molecule?
**A.** 34 to 59 h

**Q.** What about the safety and tolerability (Phase 1 MAD safety) of the same molecule?
**A.** safe and well-tolerated

**Q.** What about the “exposure in fasted state as share of exposure in fed state” value ([6]; in vivo) of the same molecule?
**A.** about 133%

**Q.** What about the “exposure in fed state as share of exposure in fasted state” value ([6]; in vivo) of the same molecule?
**A.** about 75%

**Q.** What about the half-life ([6]; plasma, oral, Part C, 75 mg QD fed, HS/AD patients) of the same molecule?
**A.** 44 h

**Q.** What about the “skin concentration of Compound A in HS or AD patient compared to healthy volunteer” value [7] of the same molecule?
**A.** about 2 fold

**Q.** And the “downregulation of proinflammatory gene transcripts in skin lesions (IL-5, IL-31, NLRP3, CXCL1, IL-2RB)” value ([8]; AD patients)?
**A.** > 25%

**Q.** And the “downregulation of proinflammatory gene transcripts in skin lesions (IL-1b, IL-17, IL-36, IFN-g, IL-8, IL-5, GZMB, COX2)” value ([8]; HS patients)?
**A.** > 25%

**Q.** And the “course of QTc prolongation with continued dosing” value (Phase 1 Part C safety)?
**A.** resolution to baseline by Day 28; also recorded: spontaneously resolved to baseline by Day 28

**Q.** What about the serious adverse events (Phase 1 Part C safety) of the same molecule?
**A.** no serious adverse events

**Q.** And the “severity of adverse events (headache, fatigue, diarrhea)” value (Phase 1 Part C safety)?
**A.** predominantly mild

**Q.** And the safety and tolerability (Phase 1 Part C safety; 75 mg QD fed, 28 days, HS/AD patients)?
**A.** generally safe and well-tolerated

**Q.** And the QTcF prolongation (Phase 1 Part C safety; Days 7-14)?
**A.** modest, non-adverse QTcF prolongation
